# Assay results: US20230227406A1, “MODULATORS OF E3 LIGASES” (Rekindle Therapeutics Inc., priority 2020, published 2023)
# Tests used:
# [1] = test system: WWP1; assay: Western blot of WWP1 protein levels after siRNA, shRNA, ASO or interferon gamma; conditions: A549 and Hs578T cells, 25 ng/mL, 48 hours
# Procedure: Cells were treated with 10 nM pooled siRNA (IDT) and harvested 48 hours after. Cells were lysed in RIPA buffer containing protease and phosphatase inhibitors on ice.
# Prior to harvesting, A549 and Hs578T cells were cultured for 48 hours in the presence or absence of interferon gamma (25 ng/mL in the cell culture media) or 10 nM pooled siRNA (IDT). Cells were lysed in RIPA buffer containing protease inhibitors on ice. Lysates were analyzed by western blot using the indicated antibodies.
# Hs578T, BT-20 and A549 cells were cultured for 48 hours in the presence or absence of interferon gamma (25 ng/mL in the cell culture media), presence of absence of 10 nM pooled siRNA (IDT), or both. […] Lysates were analyzed by western blot using the indicated antibodies. […]
# Cells were treated with 10 nM pooled siRNA for the indicated gene (IDT) and harvested 48 hours after (split for protein and RNA analysis). […] Lysates were analyzed by western blot using the indicated antibodies.
# Cells were treated with 10 nM pooled siRNA for the indicated gene (IDT) and harvested after 48 hours. […] Lysates were analyzed by western blot using the indicated antibodies.
# RNAiMax Lipofectamine (Thermo) was used as the transfection reagent at the manufacturer's recommended concentration. […] Western blots were used to quantify protein levels, using antibodies against Vinculin and WWP1.
# [2] = test system: PD-L1; assay: Western blot of PD-L1 in multiple cancer cell lines after siRNA, shRNA or interferon gamma; type: cell-based, human; conditions: 25 ng/mL, 48 hours
# From the text: Relative to the vinculin loading control, interferon gamma upregulates PD-L1 protein levels within TNBCs shown to express PD-L1 at baseline.
# Analysis occurred via western blot using the indicated antibodies.
# [3] = test system: WWP1 mRNA; assay: qPCR of WWP1 mRNA in Du145 shRNA cell lines; conditions: vs empty vector control lines
# Procedure: All shRNA constructs were introduced through lentiviral infection under puromycin selection. Cells were cultured for 48 hours in the presence or absence of interferon gamma (25 ng/mL in the cell culture media) at which time a fraction of cells was split for protein and mRNA evaluation. For protein, cells were lysed in RIPA buffer containing protease inhibitors on ice. Total RNA was isolated using the RNeasy kit from Qiagen, prior to reverse transcription to obtain cDNA.
# [4] = test system: phosphorylated AKT and phosphorylated Ribosomal Protein S6; assay: Western blot of AKT and S6 phosphorylation in Hs578T cells; type: cell-based, human; conditions: 48 hours, indicated concentrations
# Procedure: Hs578T cells (human triple negative breast cancer) were treated with the indicated concentration of COMPOUND 1 for 48 hours prior to harvesting. The “0” concentration is DMSO only (0.5%, same as was used for compound doses). […] Analysis occurred via western blot using the indicated antibodies. Quantification by densitometry of the bands from the western blot are presented for phosphorylated AKT/Total AKT and phosphorylated Ribosomal Protein S6/Total Ribosomal Protein S6. COMPOUND 1 reduced both AKT and S6 phosphorylation relative to their respective total protein levels.
# (§1) The data presented here are consistent with the previous replicate in Hs578T cells, and the observation is preserved in another TNBC cell line, BT-20. COMPOUND 1 reduces the phospho-AKT/vinculin loading control and phospho-S6/total S6 ratios. Methods are the same as the previous replicate, using the indicated doses.
# Hs578T cells (human triple negative breast cancer) were treated with the indicated concentration of COMPOUND 6 for 48 hours prior to harvesting. The “0” concentration is DMSO only (0.5%, same as was used for compound doses). […] Analysis occurred via western blot using the indicated antibodies.
# The data presented here are consistent with the previous replicate in Hs578T cells. COMPOUND 6 reduces the phospho-AKT/vinculin loading control and phospho-S6/total S6 ratios. Methods are the same as the previous replicate, using the indicated doses.
# Hs578T cells (human triple negative breast cancer) were treated with the indicated concentration of COMPOUND 7 for 48 hours before harvesting. The “0” concentration is DMSO only (0.5%, same as was used for compound doses). […] Analysis occurred via western blot using the indicated antibodies.
# The data presented here are consistent with the previous replicate in Hs578T cells. COMPOUND 7 reduces the phospho-S6/vinculin loading control ratio. Methods are the same as the previous replicate, using the indicated doses.
# (§2) Hs578T cells (human triple negative breast cancer) were treated with the indicated concentration of COMPOUND 8 for 48 hours and then harvested. The “0” concentration is DMSO only (0.5%, same as was used for compound doses). […] Analysis occurred via western blot using the indicated antibodies.
# [5] = test system: PD-L1; assay: Western blot of PD-L1 in Hs578T cells; type: cell-based, human; conditions: 48 hours, indicated concentrations of compound
# Procedure: Hs578T cells (human triple negative breast cancer) were treated with the indicated concentration of COMPOUND 1 for 48 hours prior to harvesting. The “0” concentration is DMSO only (0.5%, same as was used for compound doses). […] Analysis occurred via western blot using the indicated antibodies. Quantification by densitometry of the bands from the western blot are presented for PD-L1/Vinculin (loading control) in the absence of interferon gamma, and glycosylated/non-glycosylated PD-L1 in the presence of interferon gamma.
# as §1, with “increases PD-L1 levels and” for “reduces”, “glycosylated PD-L1/non-glycosylated PD-L1 ratio.” for “phospho-AKT/vinculin loading control and phospho-S6/total S6 ratios.”
# Hs578T cells (human triple negative breast cancer) were treated with the indicated concentration of COMPOUND 6 for 48 hours before harvesting. The “0” concentration is DMSO only (0.5%, same as was used for compound doses). […] Analysis occurred via western blot using the indicated antibodies. PD-L1 protein levels were reduced relative to the vinculin loading control upon compound treatment. This effect is observed in the presence and absence of interferon gamma (IFN, 25 ng/mL in cell culture media during the drug treatment).
# Hs578T cells (human triple negative breast cancer) were treated with the indicated concentration of COMPOUND 7 for 48 hours prior to harvesting. The “0” concentration is DMSO only (0.5%, same as was used for compound doses). […] Analysis occurred via western blot using the indicated antibodies. PD-L1 protein levels were reduced relative to the vinculin loading control upon 319-02 treatment.
# The data presented here are consistent with the previous replicate in Hs578T cells. COMPOUND 7 reduces the PD-L1/vinculin loading control ratio. Methods are the same as the previous replicate, using the indicated doses.
# as §2
# PD-L1-APC (BD Biosciences) and a matched isotype control were used to visualize PD-L1 cell surface expression by flow cytometry (1:250 dilution). As shown by western blot, the knockdown of WWP1 yielded increased PD-L1 protein levels, including an increase in the glycosylated band.
# Total RNA was isolated using an RNeasy kit from Qiagen.
# [6] = test system: DU-145 cells; assay: Cellular proliferation assay (MTS) in DU-145 cells; type: cell-based; conditions: Homo sapiens, 72 hours of incubation, read-out: IC50 values for selected compounds in DU-145 cells
# Procedure: DU-145 cells were trypsinized, counted via Trypan blue method and resuspended in DMEM complete medium (10% FBS with Pen-strep antibiotics) as described in Lieu et al, Mol Cel Endorinol, 87:19-28, 1992. Cells were seeded at a density of 100 cells per well in 1001 volume of 96-well cell culture plate and were incubated overnight at 37° C. in 5% CO2 incubator. The next day, cells were given fresh media and the test compounds were added in different concentrations. After 72 hours of incubation, MTS reagent (procured from Promega) was added to the cells and they were incubated for an additional 2 hours. Finally, the plates read in the absorbance mode at 490 nm using an ELISA plate reader (Perkin Elmer Victor X3 plate reader). The % growth values were calculated as [(T−T0)/(C−T0)]×100, where T0 is the OD of cells at the time of compound addition, C is the vehicle control, T is the OD of the test concentrations at 72 hours. Percentage inhibition values were calculated using 100−([(T−T0)/(C−T0)]×100). IC50 values were calculated in graph pad prism software using dose response curve nonlinear regression method.
# [7] = biological target: T1, WWP1 (Homo sapiens, UniProt Q9H0M0); assay: WWP1 MALDI-MS ubiquitin depletion assay (auto-ubiquitination); type: biochemical; conditions: 30 min pre-incubation, 90 minutes at 37° C.
# T1 construct: purchased Ubiquigent 63-0034-025/30033/D
# Procedure: Modulators designed in these ways were tested for HECT domain E3 ligase activity in a MALDI TOF assay of auto-ubiquitination (De Cesare et al, Cell Chem. Biol, 2018, 25, 1117)
# UBE1 (E-305 Boston Biochem), UBE2D1 (E2-616 Boston Biochem), WWP1 (Ubiquigent #63-0034-025/30033/D), ubiquitin variants (Boston Biochem; ubiquitin: U-100H; WT-His6-Ub: U-530; K27R-His6-Ub:UM-HK27R; K27O-His6-Ub: UM-HK27O), alpha-cyano-4-hydroxycinnamic acid (CHCA), ATP, trifluoroacetic acid (Millipore Sigma, St. Louis, Mo.), 384-well round-bottom polypropylene microplates (781280, Greiner, Stonehouse, UK), 384-well Anchorchip MALDI targets and Peptide Calibration Standard II (Bruker Daltonics, Billerica, Mass.).
# Protocol: The WWP1 ubiquitin depletion assay consists of recombinant UBE1 (5 nM), UBE2D1 conjugating enzyme (60 nM) and WWP1 ligase (50 nM) in a 10 mM HEPES pH 8.0 containing 0.1 mg/mL BSA, 10 mM MgCl2, 1 mM ATP and 1500 nM ubiquitin. Screening was performed by dispensing 3.5 μL of an enzyme solution containing UBE1 (10 nM), UBE2D1 (120 nM), WWP1 (100 nM), ubiquitin ([…]) to a 384-well round bottom polypropylene plates followed by incubation at 37° C. for 30 min. Reactions were initiated by the addition of 3.5 μL of an ATP solution (2000 nM) then incubated at 37° C. for 90 minutes before being quenched by the addition of 5 μL of a 50 mM EDTA solution containing 750 nM of a ubiquitin labelled with a histidine expression tag (m/z=9460.0 Da).
# For detection of ubiquitin and the ubiquitin-6His internal standards, 50 nL of quenched reaction was dispensed onto a 384-well Anchorchip MALDI target plate (Bruker) pre-coated with a uniform layer of CHCA crystals immediately followed by 200 nL of a 3 mg/mL CHCA matrix solution (6 mg of CHCA dissolved in 0.7 mL of 100% ethanol and 1.3 mL of 0.31% aqueous TFA) using a TTP Labtech Mosquito liquid handler. Spectra for all reactions were acquired on a Bruker AutoFlex II in positive linear TOF mode from 1000 laser shots with ion suppression below 4000 Da. Spectra were analyzed for response using a centroid peak-fitting algorithm to quantify ubiquitin (m/z=8564.0 Da) and ubiquitin-6His (m/z=9460.0 Da) followed taking the ratio of intensities of ubiquitin and the ubiquitin-6His internal standard.
# For compound screening, 140 nL of diluted compound in 100% DMSO was added to the WWP1 enzyme solution and pre-incubated for 30 minutes prior to reaction initiation.
# [8] = test system: SARS-CoV-2; type: cell-based; conditions: Vero cells, 36 hours
# T1 sequence (Q9H0M0 whole entry): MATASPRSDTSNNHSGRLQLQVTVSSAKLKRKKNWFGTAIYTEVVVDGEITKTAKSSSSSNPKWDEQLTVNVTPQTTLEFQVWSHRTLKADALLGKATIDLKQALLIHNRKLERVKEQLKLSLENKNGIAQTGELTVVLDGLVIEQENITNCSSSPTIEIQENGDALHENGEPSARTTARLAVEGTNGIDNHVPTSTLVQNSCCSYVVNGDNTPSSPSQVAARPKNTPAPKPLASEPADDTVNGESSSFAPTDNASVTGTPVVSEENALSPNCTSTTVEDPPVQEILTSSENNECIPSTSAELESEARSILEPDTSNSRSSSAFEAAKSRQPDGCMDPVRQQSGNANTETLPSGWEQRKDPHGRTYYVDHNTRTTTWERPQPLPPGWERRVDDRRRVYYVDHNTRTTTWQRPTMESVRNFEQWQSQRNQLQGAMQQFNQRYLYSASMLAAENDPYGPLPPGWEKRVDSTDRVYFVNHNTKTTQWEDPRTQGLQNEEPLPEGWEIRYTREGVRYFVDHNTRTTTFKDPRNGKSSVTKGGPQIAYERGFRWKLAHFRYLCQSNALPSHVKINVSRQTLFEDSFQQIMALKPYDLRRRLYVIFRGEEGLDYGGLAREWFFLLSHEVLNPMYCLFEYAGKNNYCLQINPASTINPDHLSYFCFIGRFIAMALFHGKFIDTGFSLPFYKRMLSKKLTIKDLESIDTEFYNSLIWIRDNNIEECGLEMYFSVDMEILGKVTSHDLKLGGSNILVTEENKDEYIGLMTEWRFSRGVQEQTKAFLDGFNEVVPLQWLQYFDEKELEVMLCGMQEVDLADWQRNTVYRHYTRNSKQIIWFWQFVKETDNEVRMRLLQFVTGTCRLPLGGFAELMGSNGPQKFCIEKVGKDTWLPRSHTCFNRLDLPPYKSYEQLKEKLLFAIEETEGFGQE
Molecule,IC50 [6] [µM],IC50 [7] [µM],also measured
"interferon gamma: interferon gamma, a stimulator of PD-L1 expression",,,"WWP1 levels [1]: reduced; induced PD-L1 expression ([2]; MCF-7 cells (ER+)): not readily observable; PD-L1 protein levels relative to vinculin ([2]; TNBCs (Hs578T, BT-20)): upregulates; KD (reduction) of WWP1 mRNA by qPCR [3]: 15%"
"Fc1cccc2[nH]cc(Cc3c[nH]c4cccc(F)c34)c12 [Compound 8, bis(4-fluoro-1H-indol-3-yl)methane]",12,49,S6 phosphorylation (relative to total S6 or vinculin loading control) [4]: reduced; PD-L1 levels (relative to vinculin loading control) [5]: reduced
"N#Cc1cc(NC(=O)c2ccc3c(c2)c(C=O)cn3-c2ccccc2)ccn1 [Compound 2, N-(2-cyanopyridin-4-yl)-3-formyl-1-phenyl-1H-indole-5-carboxamide]",,26,
"O=C(O)c1ccc2[nH]cc(Cc3c[nH]c4ccccc34)c2c1 [Compound 3, 3-((1H-indol-3-yl)methyl)-1H-indole-5-carboxylic acid]",,~300,
"O=C(O)c1ccc2c(Cc3c[nH]c4ccccc34)c[nH]c2c1 [Compound 4, 3-((1H-indol-3-yl)methyl)-1H-indole-6-carboxylic acid]",0.08,29,
"OCc1c[nH]c2ccccc12 [Compound I3C, Indole-3-carbinol]",,,impact on SARS-CoV-2 infection ([8]; 2.5 μM): little impact on infection; inhibition of SARS-CoV-2 infection ([8]; 5 μM): > 75%
"C#CCNC(=O)c1ccc2c(Cc3c[nH]c4ccccc34)c(C)[nH]c2c1 [Compound 5, 3-((1H-indol-3-yl)methyl)-2-methyl-N-(prop-2-yn-1-yl)-1H-indole-6-carboxamide]",5.48,45,
"Fc1ccc2[nH]cc(Cc3c[nH]c4ccc(F)cc34)c2c1 [Compound 9, bis(5-fluoro-1H-indol-3-yl)methane]",,66,
